According to patent US20240109900A1, “AZABICYCLIC SHP2 INHIBITORS” (IRBM S.P.A., priority 2021, published 2024):
Where two headings read alike, the source gives them in different places.

What was measured:
[1] = molecular target: SHP-2 enzyme (Met1-Leu525) (Homo sapiens (Human), UniProt Q06124); assay: SHP2 inhibition enzymatic assay; assay type: biochemical; details: read-out: SHP2wt-IC50
Outline: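 Compounds were preincubated 30 min with 0.5 nM SHP-2 (Met1-Leu525) plus 500 nM IRS1 activating peptide (pH 7.2 HEPES, 5 mM DTT), then 75 μM DiFMUP substrate reacted 30 min at room temperature. After bpV quench, DiFMUP fluorescence gave % inhibition; four-parameter logistic fit yielded IC50.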

[2] = test system: ERK phosphorylation in KYSE-520 cells; assay: Phospho-ERK cellular assay; assay type: cell-based; details: Homo sapiens, KYSE-520 cells, 2 h at 37° C., phospho-ERK1/2 (Thr202/Tyr204) TR-FRET, read-out: PERK IC50
Outline: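 TR-FRET read-out of ERK1/2 Thr202/Tyr204 phosphorylation was taken after overnight antibody incubation at room temperature. Before that, KYSE-520 cells were treated 2 h at 37 °C with compound dilutions and lysed 30 min. Percent inhibition relative to vehicle and cell-free wells was fitted four-parametrically to give IC50.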

[3] = 0.5 nM SHP-2 activated by 500 nM IRS1 peptide, 75 μM DiFMUP substrate

SHP-2 enzyme (Met1-Leu525), sequence (Q06124 1-525): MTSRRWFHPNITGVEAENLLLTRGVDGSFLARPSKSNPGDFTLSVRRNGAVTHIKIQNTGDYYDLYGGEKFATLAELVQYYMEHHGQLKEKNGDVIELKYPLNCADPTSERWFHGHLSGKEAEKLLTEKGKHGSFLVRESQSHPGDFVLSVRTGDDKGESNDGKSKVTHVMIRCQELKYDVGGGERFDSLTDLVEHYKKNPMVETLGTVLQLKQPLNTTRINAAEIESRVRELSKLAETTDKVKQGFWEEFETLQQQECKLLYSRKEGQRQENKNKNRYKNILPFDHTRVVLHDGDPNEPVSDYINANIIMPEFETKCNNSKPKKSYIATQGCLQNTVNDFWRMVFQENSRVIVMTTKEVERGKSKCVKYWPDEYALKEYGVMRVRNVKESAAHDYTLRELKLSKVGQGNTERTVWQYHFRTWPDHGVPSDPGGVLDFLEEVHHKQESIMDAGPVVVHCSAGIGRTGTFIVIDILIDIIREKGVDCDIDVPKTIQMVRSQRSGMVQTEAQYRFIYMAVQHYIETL

| Structure (SMILES) | IC50 [1, 3] | IC50 ([2]; KYSE-520, 2 h) | IC50 [1] | IC50 [2] |
| --- | --- | --- | --- | --- |
| Cc1csc(C2(CN)C3CCN(c4nc5nc(Sc6ccnc(N)c6Cl)cnc5[nH]4)CC32)n1 (stereo not shown) [Example 70, 4-((2-(7-(aminomethyl)-7-(4-methylthiazol-2-yl)-3-azabicyclo[4.1.0]heptan-3-yl)-1H-imidazo[4,5-b]pyrazin-5-yl)thio)-3-chloropyridin-2-amine] | – | – | < 500 nM | < 1000 nM |
| NCC1(c2ccccc2)C2CCN(c3cnc(Sc4cccnc4C(F)(F)F)c(N)n3)CC21 (stereo not shown) [Example 71, 6-(7-(aminomethyl)-7-phenyl-3-azabicyclo[4.1.0]heptan-3-yl)-3-((2-(trifluoromethyl)pyridin-3-yl)thio)pyrazin-2-amine] | < 500 nM | > 5000 nM | – | – |
| NCC1(c2ccccn2)C2CCN(c3cnc(Sc4cccnc4C(F)(F)F)c(N)n3)CC21 (stereo not shown) [Example 72, 6-(7-(aminomethyl)-7-(pyridin-2-yl)-3-azabicyclo[4.1.0]heptan-3-yl)-3-((2-(trifluoromethyl)pyridin-3-yl)thio)pyrazin-2-amine] | < 500 nM | < 1000 nM | – | – |
| Cc1csc(C2(CN)C3CCN(c4cnc(Sc5cccnc5C(F)(F)F)c(N)n4)CC32)n1 (stereo not shown) [Example 73, 6-(7-(aminomethyl)-7-(4-methylthiazol-2-yl)-3-azabicyclo[4.1.0]heptan-3-yl)-3-((2-(trifluoromethyl)pyridin-3-yl)thio)pyrazin-2-amine] | < 500 nM | 1000 to 5000 nM | – | – |
| Cc1csc(C2(CN)C3CCN(c4cnc(Sc5ccnc(N)c5Cl)c(N)n4)CC32)n1 (stereo not shown) [Example 74, 3-((2-amino-3-chloropyridin-4-yl)thio)-6-(7-(aminomethyl)-7-(4-methylthiazol-2-yl)-3-azabicyclo[4.1.0]heptan-3-yl)pyrazin-2-amine] | – | – | < 500 nM | 1000 to 5000 nM |
| NCC1C2CCN(c3cnc(Sc4cccnc4C(F)(F)F)c(N)n3)CC12 (stereo not shown) [Example 75, 6-(7-(aminomethyl)-3-azabicyclo[4.1.0]heptan-3-yl)-3-((2-(trifluoromethyl)pyridin-3-yl)thio)pyrazin-2-amine] | < 500 nM | > 5000 nM | – | – |
| Cc1csc(C2(CN)C3CCN(c4ncc(Sc5ccnc(N)c5Cl)c5nccn45)CC32)n1 (stereo not shown) [Example 76, 4-((5-(7-(aminomethyl)-7-(4-methylthiazol-2-yl)-3-azabicyclo[4.1.0]heptan-3-yl)imidazo[1,2-c]pyrimidin-8-yl)thio)-3-chloropyridin-2-amine] | – | – | < 500 nM | > 5000 nM |

The next lines start with results.

| IC50 [1, 3] | IC50 ([2]; KYSE-520, 2 h) | Structure (SMILES) | IC50 [1] | IC50 [2] |
| --- | --- | --- | --- | --- |
| < 500 nM | < 1000 nM | Cc1csc(C2(CN)C3CCN(c4cnc5c(-c6cccc(Cl)c6Cl)n[nH]c5n4)CC32)n1 (stereo not shown) [Example 77, (3-(3-(2,3-dichlorophenyl)-1H-pyrazolo[3,4-b]pyrazin-6-yl)-7-(4-methylthiazol-2-yl)-3-azabicyclo[4.1.0]heptan-7-yl)methanamine] | – | – |
| < 500 nM | < 1000 nM | Cc1csc([C@@]2(CN)[C@@H]3CCN(c4cnc5c(-c6cccc(Cl)c6Cl)n[nH]c5n4)C[C@@H]32)n1 [Example 78, ((1S,6R,7S)-3-(3-(2,3-dichlorophenyl)-1H-pyrazolo[3,4-b]pyrazin-6-yl)-7-(4-methylthiazol-2-yl)-3-azabicyclo[4.1.0]heptan-7-yl)methanamine] | – | – |
| < 500 nM | < 1000 nM | Cc1csc([C@@]2(CN)[C@@H]3CCN(c4cnc5c(-c6ccc7nn(C)cc7c6Cl)n[nH]c5n4)C[C@@H]32)n1 [Example 79, ((1S,6R,7S)-3-(3-(4-chloro-2-methyl-2H-indazol-5-yl)-1H-pyrazolo[3,4-b]pyrazin-6-yl)-7-(4-methylthiazol-2-yl)-3-azabicyclo[4.1.0]heptan-7-yl)methanamine] | – | – |
| < 500 nM | < 1000 nM | NCC1(c2ccccc2)C2CCN(c3cnc4c(-c5cccc(Cl)c5Cl)n[nH]c4n3)CC21 (stereo not shown) [Example 80, (3-(3-(2,3-dichlorophenyl)-1H-pyrazolo[3,4-b]pyrazin-6-yl)-7-phenyl-3-azabicyclo[4.1.0]heptan-7-yl)methanamine] | – | – |
